What was measured:
Assay type in all cases: cell-based
GIPR = biological target: T1, GIPR (Homo sapiens, UniProt P48546); test: GIP activity test (cAMP, chemiluminescence); settings: CHO-K1 cell line stably expressing GIPR; relative luminescence units; read-out: GIP [EC50(pmol)]
T1 construct: expressed in transfected cells; host or cells: CHO-K1
T1 sequence (P48546 22-466): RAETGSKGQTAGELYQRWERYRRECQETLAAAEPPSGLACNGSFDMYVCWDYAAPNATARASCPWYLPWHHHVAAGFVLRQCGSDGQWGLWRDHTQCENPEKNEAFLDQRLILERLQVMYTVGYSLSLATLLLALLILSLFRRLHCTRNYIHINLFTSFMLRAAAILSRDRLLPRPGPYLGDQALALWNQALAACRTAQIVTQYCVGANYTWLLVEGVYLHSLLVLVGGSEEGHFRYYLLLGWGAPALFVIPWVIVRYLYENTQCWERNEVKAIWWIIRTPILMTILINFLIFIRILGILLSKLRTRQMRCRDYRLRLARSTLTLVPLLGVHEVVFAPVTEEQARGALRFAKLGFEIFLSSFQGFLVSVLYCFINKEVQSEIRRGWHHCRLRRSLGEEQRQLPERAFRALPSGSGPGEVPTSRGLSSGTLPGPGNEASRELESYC
Procedure: (§1) Upon stimulation by a specific agonist, GIPR activates the intracellular adenylate cyclase signaling pathway, resulting in an increase in cAMP levels and ultimately leading to insulin production and secretion. A cell line stably transfected with GIPR was stimulated with test compounds, thereby rapidly increasing intracellular cAMP levels. The relative luminescence units (RLU) of cells stimulated at various concentrations were measured by a chemiluminescence method, and the EC50 value of the agonist was calculated accordingly. This activity assay method is currently a commonly used method for evaluating GIP receptor agonist activity both domestically and internationally. A CHO-K1 cell line stably expressing GIPR was used. The stable cells were stimulated with agonists at different concentrations, and the relative luminescence units after stimulation at each concentration were measured to calculate the EC50 value of the agonist.

GCG-R = biological target: T2, GCG-R (Homo sapiens, UniProt P47871); test: GCG activity test (cAMP, chemiluminescence); settings: CHO-K1 cell line stably expressing GCG-R; relative luminescence units; read-out: GCG [EC50(pmol)]
T2 construct: expressed in transfected cells; host or cells: CHO-K1
Procedure: as §1, with “GCG-R” for “GIPR”, “GCG” for “GIP”

GLP-1R = biological target: T3, GLP-1R (Homo sapiens, UniProt P43220); test: GLP-1 activity test (cAMP, chemiluminescence); settings: CHO-K1 cell line stably expressing GLP-1R; relative luminescence units; read-out: GLP-1 [EC50(pmol)]
T3 construct: expressed in transfected cells; host or cells: CHO-K1
Procedure: as §1, with “GLP-1R” for “GIPR”, “test” for “assay”, “GLP-1” for “GIP”

T2 sequence (P47871 26-477, species assumed): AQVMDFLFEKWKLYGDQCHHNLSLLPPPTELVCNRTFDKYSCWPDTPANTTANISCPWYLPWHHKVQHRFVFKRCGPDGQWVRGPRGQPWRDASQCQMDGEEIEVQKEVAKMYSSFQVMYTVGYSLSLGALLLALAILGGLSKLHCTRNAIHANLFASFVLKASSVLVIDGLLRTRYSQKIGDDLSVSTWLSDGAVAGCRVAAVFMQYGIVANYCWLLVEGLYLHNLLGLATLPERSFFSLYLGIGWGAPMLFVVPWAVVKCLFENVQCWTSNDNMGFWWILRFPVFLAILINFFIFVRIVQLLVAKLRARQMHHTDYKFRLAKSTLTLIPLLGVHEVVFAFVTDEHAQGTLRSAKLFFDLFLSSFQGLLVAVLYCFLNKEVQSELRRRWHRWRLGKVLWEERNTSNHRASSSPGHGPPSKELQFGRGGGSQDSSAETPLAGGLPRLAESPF
T3 sequence (P43220 24-463, species assumed): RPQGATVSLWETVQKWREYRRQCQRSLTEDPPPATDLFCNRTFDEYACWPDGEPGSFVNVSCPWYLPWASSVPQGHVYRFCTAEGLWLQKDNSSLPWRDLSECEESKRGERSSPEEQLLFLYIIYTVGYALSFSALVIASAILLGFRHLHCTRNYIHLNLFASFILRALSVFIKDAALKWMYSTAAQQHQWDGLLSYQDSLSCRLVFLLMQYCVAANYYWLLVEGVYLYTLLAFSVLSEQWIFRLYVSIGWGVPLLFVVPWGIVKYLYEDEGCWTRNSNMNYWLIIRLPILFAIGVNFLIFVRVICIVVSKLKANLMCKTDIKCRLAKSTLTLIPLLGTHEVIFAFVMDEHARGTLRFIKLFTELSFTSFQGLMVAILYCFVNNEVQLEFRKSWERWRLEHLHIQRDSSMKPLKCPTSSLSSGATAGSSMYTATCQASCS

Structure (SMILES): CC[C@H](C)[C@H](NC(=O)[C@H](Cc1ccccc1)NC(=O)[C@H](C)NC(=O)C(C)(C)NC(=O)[C@H](CCC(N)=O)NC(=O)[C@H](C)NC(=O)[C@H](CCCCNC(=O)COCCOCCNC(=O)CC[C@H](NC(=O)CCCCCCCCCCCCCCCCCCC(=O)O)C(=O)O)NC(=O)[C@H](CCCCN)NC(=O)[C@H](CC(=O)O)NC(=O)[C@H](CC(C)C)NC(=O)[C@](C)(CC(C)C)NC(=O)[C@@H](NC(=O)[C@H](CO)NC(=O)[C@H](Cc1ccc(O)cc1)NC(=O)[C@H](CC(=O)O)NC(=O)[C@H](CO)NC(=O)[C@@H](NC(=O)[C@H](Cc1ccccc1)NC(=O)[C@@H](NC(=O)CNC(=O)[C@H](CCC(N)=O)NC(=O)C(C)(C)NC(=O)[C@@H](N)Cc1ccc(O)cc1)[C@@H](C)O)[C@@H](C)O)[C@@H](C)CC)C(=O)N[C@@H](CCC(=O)O)C(=O)N[C@@H](Cc1ccc(O)cc1)C(=O)N[C@@H](CC(C)C)C(=O)N[C@@H](CC(C)C)C(=O)N[C@@H](CCC(=O)O)C(=O)NCC(=O)NCC(=O)N1CCC[C@H]1C(=O)N[C@@H](CO)C(=O)N[C@@H](CO)C(=O)NCC(=O)N[C@@H](C)C(=O)N1CCC[C@H]1C(=O)N1CCC[C@H]1C(=O)N1CCC[C@H]1C(=O)N[C@@H](CO)C(N)=O [retatrutide, Retatrutide, reference compound]
- EC50 (GIPR): 0.0342 nM
- EC50 (GCG-R): 0.523 nM
- EC50 (GLP-1R): 0.046 nM

Structure (SMILES): CC[C@H](C)[C@H](NC(=O)[C@H](Cc1ccccc1)NC(=O)[C@H](C)NC(=O)C(C)(C)NC(=O)[C@H](CCC(N)=O)NC(=O)[C@H](C)NC(=O)[C@H](CCCCNC(=O)COCCOCCNC(=O)CC[C@H](NC(=O)CCCCCCCCCCCCCCCCCCC(=O)O)C(=O)O)NC(=O)[C@H](CCCCN)NC(=O)[C@H](CC(=O)O)NC(=O)[C@H](CC(C)C)NC(=O)C(C)(CC(C)C)NC(=O)[C@@H](NC(=O)[C@H](CO)NC(=O)[C@H](Cc1ccc(O)cc1)NC(=O)[C@H](CC(=O)O)NC(=O)[C@H](CO)NC(=O)[C@@H](NC(=O)C(C)(Cc1ccccc1F)NC(=O)[C@@H](NC(=O)CNC(=O)[C@H](CCC(N)=O)NC(=O)C(C)(C)NC(=O)[C@@H](N)Cc1ccc(O)cc1)[C@@H](C)O)[C@@H](C)O)[C@@H](C)CC)C(=O)N[C@@H](CCC(=O)O)C(=O)N[C@@H](Cc1ccc(O)cc1)C(=O)N[C@@H](CC(C)C)C(=O)N[C@@H](CC(C)C)C(=O)N[C@@H](CCC(=O)O)C(=O)NCC(=O)NCC(=O)N1CCC[C@H]1C(=O)N[C@@H](CO)C(=O)N[C@@H](CO)C(=O)NCC(=O)N[C@@H](C)C(=O)N1CCC[C@H]1C(=O)N1CCC[C@H]1C(=O)N1CCC[C@H]1C(=O)N[C@@H](CO)C(N)=O (stereo partly drawn) [Compound 5]
- EC50 (GIPR): 0.0205 nM
- EC50 (GCG-R): 0.138 nM
- EC50 (GLP-1R): 0.0454 nM

Structure (SMILES): CC[C@H](C)[C@H](NC(=O)[C@H](Cc1ccccc1)NC(=O)[C@H](C)NC(=O)C(C)(C)NC(=O)[C@H](CCC(N)=O)NC(=O)[C@H](C)NC(=O)[C@H](CCCCNC(=O)COCCOCCNC(=O)COCCOCCNC(=O)CC[C@H](NC(=O)CCCCCCCCCCCCCCCCCCC(=O)O)C(=O)O)NC(=O)[C@H](CCCCN)NC(=O)[C@H](CC(=O)O)NC(=O)[C@H](CC(C)C)NC(=O)C(C)(CC(C)C)NC(=O)[C@@H](NC(=O)[C@H](CO)NC(=O)[C@H](Cc1ccc(O)cc1)NC(=O)[C@H](CC(=O)O)NC(=O)[C@H](CO)NC(=O)[C@@H](NC(=O)C(C)(Cc1ccccc1F)NC(=O)[C@@H](NC(=O)CNC(=O)[C@H](CCC(N)=O)NC(=O)C(C)(C)NC(=O)[C@@H](N)Cc1ccc(O)cc1)[C@@H](C)O)[C@@H](C)O)[C@@H](C)CC)C(=O)N[C@@H](CCC(=O)O)C(=O)N[C@@H](Cc1ccc(O)cc1)C(=O)N[C@@H](CC(C)C)C(=O)N[C@@H](CC(C)C)C(=O)N[C@@H](CCC(=O)O)C(=O)NCC(=O)NCC(=O)N1CCC[C@H]1C(=O)N[C@@H](CO)C(=O)N[C@@H](CO)C(=O)NCC(=O)N[C@@H](C)C(=O)N1CCC[C@H]1C(=O)N1CCC[C@H]1C(=O)N1CCC[C@H]1C(=O)N[C@@H](CO)C(N)=O (stereo partly drawn) [Compound 11]
- EC50 (GIPR): 0.027 nM
- EC50 (GCG-R): 0.166 nM
- EC50 (GLP-1R): 0.0536 nM

Structure (SMILES): CC[C@H](C)[C@H](NC(=O)[C@H](Cc1ccccc1)NC(=O)[C@H](C)NC(=O)C(C)(C)NC(=O)[C@H](CCC(N)=O)NC(=O)[C@H](C)NC(=O)[C@H](CCCCNC(=O)COCCOCCNC(=O)CC[C@H](NC(=O)CCCCCCCCCCCCCCCCCCC(=O)O)C(=O)O)NC(=O)[C@H](CCCCN)NC(=O)[C@H](CC(=O)O)NC(=O)[C@H](CC(C)C)NC(=O)C(C)(CC(C)C)NC(=O)[C@@H](NC(=O)[C@H](CO)NC(=O)[C@H](Cc1ccc(O)cc1)NC(=O)[C@H](CC(=O)O)NC(=O)[C@H](CO)NC(=O)[C@@H](NC(=O)C(C)(Cc1ccccc1)NC(=O)[C@@H](NC(=O)CNC(=O)[C@H](CCC(N)=O)NC(=O)C(C)(C)NC(=O)[C@@H](N)Cc1ccc(O)cc1)[C@@H](C)O)[C@@H](C)O)[C@@H](C)CC)C(=O)N[C@@H](CCC(=O)O)C(=O)N[C@@H](Cc1ccc(O)cc1)C(=O)N[C@@H](CC(C)C)C(=O)N[C@@H](CC(C)C)C(=O)N[C@@H](CCC(=O)O)C(=O)NCC(=O)NCC(=O)N1CCC[C@H]1C(=O)N[C@@H](CO)C(=O)N[C@@H](CO)C(=O)NCC(=O)N[C@@H](C)C(=O)N1CCC[C@H]1C(=O)N1CCC[C@H]1C(=O)N1CCC[C@H]1C(=O)N[C@@H](CO)C(N)=O (stereo partly drawn) [Compound 1]
- EC50 (GIPR): 0.0226 nM
- EC50 (GCG-R): 0.171 nM
- EC50 (GLP-1R): 0.0502 nM

Structure (SMILES): CC[C@H](C)[C@H](NC(=O)[C@H](Cc1ccccc1)NC(=O)[C@H](C)NC(=O)C(C)(C)NC(=O)[C@H](CCC(N)=O)NC(=O)[C@H](C)NC(=O)[C@H](CCCCNC(=O)COCCOCCNC(=O)COCCOCCNC(=O)CC[C@H](NC(=O)CCCCCCCCCCCCCCCCCCC(=O)O)C(=O)O)NC(=O)[C@H](CCCCN)NC(=O)[C@H](CC(=O)O)NC(=O)[C@H](CC(C)C)NC(=O)C(C)(CC(C)C)NC(=O)[C@@H](NC(=O)[C@H](CO)NC(=O)[C@H](Cc1ccc(O)cc1)NC(=O)[C@H](CC(=O)O)NC(=O)[C@H](CO)NC(=O)[C@@H](NC(=O)C(C)(Cc1ccccc1)NC(=O)[C@@H](NC(=O)CNC(=O)[C@H](CCC(N)=O)NC(=O)C(C)(C)NC(=O)[C@@H](N)Cc1ccc(O)cc1)[C@@H](C)O)[C@@H](C)O)[C@@H](C)CC)C(=O)N[C@@H](CCC(=O)O)C(=O)N[C@@H](Cc1ccc(O)cc1)C(=O)N[C@@H](CC(C)C)C(=O)N[C@@H](CC(C)C)C(=O)N[C@@H](CCC(=O)O)C(=O)NCC(=O)NCC(=O)N1CCC[C@H]1C(=O)N[C@@H](CO)C(=O)N[C@@H](CO)C(=O)NCC(=O)N[C@@H](C)C(=O)N1CCC[C@H]1C(=O)N1CCC[C@H]1C(=O)N1CCC[C@H]1C(=O)N[C@@H](CO)C(N)=O (stereo partly drawn) [Compound 9]
- EC50 (GIPR): 0.0285 nM
- EC50 (GCG-R): 0.186 nM
- EC50 (GLP-1R): 0.0612 nM
